Assay results from patent publication US20090252788A1, “Balsalazide formulations and manufacture and use thereof” (Salix Pharmaceuticals, Inc., priority 2005, published 2009).

Experiment: Particle size distribution and specific surface area (LS 200, Small Volume Module, Fraunhofer optical model)
Type: physicochemical
Details: for Particle size, % < 10: 10% of volume below this size; for Particle size, % < 25: 25% of volume below this size; for Particle size, % < 50: 50% of volume below this size; for Particle size, % < 75: 75% of volume below this size; for Particle size, % < 100: 100% of volume below this size; for Mean particle size (volume statistics, arithmetic) / Median particle size (volume statistics, arithmetic) / Specific Surf. Area: calculations from 0.375 μm to 2000 μm
Text: FIG. 2 depicts and the data below tabulate for Sample 1 the arithmetic statistics describing surface area, particle size, and cumulative volume characteristics for one lot of drug substance (feed material). The particle size distribution for this lot is depicted in FIG. 2.
Table 11 A-D tabulates the arithmetic statistics describing surface area, particle size, and cumulative volume characteristics for three lots of drug substance (feed material). The particle size distributions for these lots are depicted in FIG. 7. […] Of these three lots of drug substance, 100% of the particles are less than 83.89 μm, 373.1 μm, and 69.61 μm, respectively.
Table 12 tabulates the arithmetic statistics describing surface area, particle size, and cumulative volume characteristics for three lots of drug product (encapsulated granulation samples) that were manufactured with the three lots of drug substance (feed material) as depicted in FIG. 7. […] Of these three lots of drug product, 100% of the granules are less than 1660 μm, 2000 μm, and 1512 μm, respectively. The particle size distributions for these three lots are depicted in FIG. 8.

[1] = Particle Diameter (Lower) 0.375 μm
[2] = Particle Diameter (Lower) 0.656 μm
[3] = Particle Diameter (Lower) 1.149 μm
[4] = Particle Diameter (Lower) 2.011 μm
[5] = Particle Diameter (Lower) 3.519 μm
[6] = Particle Diameter (Lower) 6.158 μm
[7] = Particle Diameter (Lower) 10.78 μm
[8] = Particle Diameter (Lower) 18.86 μm
[9] = Particle Diameter (Lower) 33.01 μm
[10] = Particle Diameter (Lower) 57.77 μm
[11] = Particle Diameter (Lower) 101.1 μm
[12] = Particle Diameter (Lower) 176.9 μm
[13] = Particle Diameter (Lower) 309.6 μm
[14] = Particle Diameter (Lower) 541.9 μm
[15] = Particle Diameter (Lower) 948.3 μm
[16] = Particle Diameter (Lower) 1660 μm

Row | SMILES | Cum. < Volume % [1] | Diff. Volume % [1] | Cum. < Volume % [2] | Diff. Volume % [2] | Cum. < Volume % [3] | Diff. Volume % [3] | Cum. < Volume % [4] | Diff. Volume % [4] | Cum. < Volume % [5] | Diff. Volume % [5] | Cum. < Volume % [6] | Diff. Volume % [6] | Cum. < Volume % [7] | Diff. Volume % [7] | Diff. Volume % [8] | Cum. < Volume % [9] | Diff. Volume % [9] | Cum. < Volume % [10] | Diff. Volume % [10] | Cum. < Volume % [11] | other results
1 | O=C(O)CCNC(=O)c1ccc(/N=N/c2ccc(O)c(C(=O)O)c2)cc1 [Feed Powder Sample A (#35.$01)] | 0% | 1.82% | 1.82% | 3.88% | 5.70% | 4.90% | 10.6% | 9.30% | 19.9% | 18.4% | 38.3% | 25.7% | 63.9% | 21.8% | 10.2% | 95.9% | 3.32% | 99.3% | 0.75% | 100% | Particle size, % < 10: 1.899 μm; Particle size, % < 25: 4.253 μm; Particle size, % < 50: 8.031 μm; Particle size, % < 75: 13.88 μm; Particle size, % < 100: 83.89 μm; Cum. < Volume % [8]: 85.7%; Diff. Volume % [11]: 0%; Cum. < Volume % [12]: 100%; Diff. Volume % [12]: 0%; Cum. < Volume % [13]: 100%; Mean particle size (volume statistics, arithmetic): 10.85 μm; Median particle size (volume statistics, arithmetic): 8.031 μm; Specific Surf. Area: 14230 cm^2/mL
2 | O=C(O)CCNC(=O)c1ccc(/N=N/c2ccc(O)c(C(=O)O)c2)cc1 [Feed Powder Sample B (#41.$02)] | 0% | 0.64% | 0.64% | 1.50% | 2.15% | 1.94% | 4.08% | 3.16% | 7.24% | 6.98% | 14.2% | 13.9% | 28.1% | 21.3% | 23.1% | 72.5% | 17.0% | 89.5% | 7.10% | 96.6% | Cum. < Volume % [8]: 49.5%; Diff. Volume % [11]: 2.65%; Cum. < Volume % [12]: 99.3%; Diff. Volume % [12]: 0.73%
3 | O=C(O)CCNC(=O)c1ccc(/N=N/c2ccc(O)c(C(=O)O)c2)cc1 [Feed Powder Sample C (#53.$02)] | 0% | 1.96% | 1.96% | 4.37% | 6.33% | 6.03% | 12.4% | 11.3% | 23.7% | 20.6% | 44.2% | 26.7% | 70.9% | 20.7% | 7.30% | 98.9% | 1.07% | 99.99% | 0.013% | 100% | Diff. Volume % [11]: 0%; Cum. < Volume % [12]: 100%; Diff. Volume % [12]: 0%
4 | O=C([O-])CCNC(=O)c1ccc(/N=N/c2ccc(O)c(C(=O)[O-])c2)cc1.[Na+].[Na+] [Sample 1] | 0% | 2.66% | 2.66% | 6.09% | 8.74% | 8.50% | 17.2% | 14.4% | 31.6% | 22.8% | 54.5% | 25.3% | 79.8% | 15.8% | 4.34% | 99.97% | 0.030% | 100% | 0% | 100% | Particle size, % < 10: 1.266 μm; Particle size, % < 25: 2.827 μm; Particle size, % < 50: 5.584 μm; Particle size, % < 75: 9.624 μm; Particle size, % < 100: 43.67 μm; Cum. < Volume % [8]: 95.6%; Diff. Volume % [11]: 0%; Cum. < Volume % [12]: 100%; Diff. Volume % [12]: 0%; Cum. < Volume % [13]: 100%; Diff. Volume % [13]: 0%; Cum. < Volume % [14]: 100%; Diff. Volume % [14]: 0%; Cum. < Volume % [15]: 100%; Diff. Volume % [15]: 0%; Cum. < Volume % [16]: 100%; Diff. Volume % [16]: 0%; Mean particle size (volume statistics, arithmetic): 6.967 μm; Median particle size (volume statistics, arithmetic): 5.584 μm; Specific Surf. Area: 19389 cm^2/mL
5 | O=C([O-])CCNC(=O)c1ccc(/N=N/c2ccc(O)c(C(=O)[O-])c2)cc1.[Na+].[Na+] [Sample 2] | 0% | 2.91% | 2.91% | 6.59% | 9.50% | 9.37% | 18.9% | 16.1% | 35.0% | 24.3% | 59.3% | 24.1% | 83.4% | 12.6% | 3.78% | 99.8% | 0.23% | 100% | 0% | 100% | Particle size, % < 10: 1.192 μm; Particle size, % < 25: 2.586 μm; Particle size, % < 50: 5.044 μm; Particle size, % < 75: 8.715 μm; Particle size, % < 100: 47.94 μm; Cum. < Volume % [8]: 96.0%; Diff. Volume % [11]: 0%; Cum. < Volume % [12]: 100%; Diff. Volume % [12]: 0%; Cum. < Volume % [13]: 100%; Diff. Volume % [13]: 0%; Cum. < Volume % [14]: 100%; Diff. Volume % [14]: 0%; Cum. < Volume % [15]: 100%; Diff. Volume % [15]: 0%; Cum. < Volume % [16]: 100%; Diff. Volume % [16]: 0%; Mean particle size (volume statistics, arithmetic): 6.503 μm; Median particle size (volume statistics, arithmetic): 5.044 μm; Specific Surf. Area: 20709 cm^2/mL
6 | O=C([O-])CCNC(=O)c1ccc(/N=N/c2ccc(O)c(C(=O)[O-])c2)cc1.[Na+].[Na+] [Sample 3] | 0% | 2.13% | 2.13% | 4.92% | 7.05% | 6.97% | 14.0% | 12.1% | 26.1% | 20.4% | 46.4% | 25.7% | 72.2% | 19.8% | 7.20% | 99.2% | 0.79% | 99.997% | 0.0029% | 100% | Particle size, % < 10: 1.498 μm; Particle size, % < 25: 3.385 μm; Particle size, % < 50: 6.679 μm; Particle size, % < 75: 11.50 μm; Particle size, % < 100: 63.41 μm; Cum. < Volume % [8]: 92.0%; Diff. Volume % [11]: 0%; Cum. < Volume % [12]: 100%; Diff. Volume % [12]: 0%; Cum. < Volume % [13]: 100%; Diff. Volume % [13]: 0%; Cum. < Volume % [14]: 100%; Diff. Volume % [14]: 0%; Cum. < Volume % [15]: 100%; Diff. Volume % [15]: 0%; Cum. < Volume % [16]: 100%; Diff. Volume % [16]: 0%; Mean particle size (volume statistics, arithmetic): 8.399 μm; Median particle size (volume statistics, arithmetic): 6.679 μm; Specific Surf. Area: 16802 cm^2/mL
7 | O=C([O-])CCNC(=O)c1ccc(/N=N/c2ccc(O)c(C(=O)[O-])c2)cc1.[Na+].[Na+] [Sample 4] | 0% | 0.61% | 0.61% | 1.55% | 2.17% | 2.46% | 4.62% | 4.37% | 8.99% | 8.23% | 17.2% | 14.1% | 31.3% | 21.2% | 25.5% | 78.0% | 17.2% | 95.3% | 3.43% | 98.7% | Particle size, % < 10: 3.851 μm; Particle size, % < 25: 8.660 μm; Particle size, % < 50: 17.82 μm; Particle size, % < 75: 30.86 μm; Particle size, % < 100: 309.6 μm; Cum. < Volume % [8]: 52.5%; Diff. Volume % [11]: 1.08%; Cum. < Volume % [12]: 99.8%; Diff. Volume % [12]: 0.24%; Cum. < Volume % [13]: 100%; Diff. Volume % [13]: 0%; Cum. < Volume % [14]: 100%; Diff. Volume % [14]: 0%; Cum. < Volume % [15]: 100%; Diff. Volume % [15]: 0%; Cum. < Volume % [16]: 100%; Diff. Volume % [16]: 0%; Mean particle size (volume statistics, arithmetic): 22.93 μm; Median particle size (volume statistics, arithmetic): 17.82 μm; Specific Surf. Area: 7553 cm^2/mL
